Results taken from patent US20090048301A1 (IMCLONE SYSTEMS INCORPORATED, priority 2003, published 2009).
Values joined by “and” are separate entries in the source; they are usually repeats but may differ in a detail not shown here. Equal values may be shown once. Read-outs that look alike come from different tables or passages of the source.

Key:
[1] = tested on: A431, human epidermoid carcinoma cells; test: Cell cycle analysis (FACS), mitotic arrest in G2/M; type: cell-based; settings: read-out: FACS Assay: concentration required to achieve inhibition in FACS assay
Procedure: The cell cycle analysis was performed as follows. Cancer cells (A431, human epidennoid carcinoma cells) were maintained in culture in D-MEM media with 10% FBS and 1 mg/ml glutamate. Prior to experiment, cells were plated onto 6-well plates for a final density of 500,000 cells/well at the time of treatment. Cells were treated with the compounds of the invention at a concentration of about 0.01 to 1 μM final concentrations (final 0.1% DMSO) for 24 hours, then trypsinized, collected, rinsed in PBS (phosphate buffered saline), and fixed in 70% cold ethanol overnight at 4° C. The cells were then rinsed with PBS, resuspended in PBS with 0.2% Tween, RNAse was added (final 1 μg/ml), cells were incubated at 37° C. for 15 min, followed by addition of Propidium Iodide (final 50 μg/ml), and a 30 minute incubation at room temperature. DNA ploidy was analyzed using flow cytometers (Epics Excel, Beckman-Coulter, or Guava PCA-96, Guava Technologies) and mitotic arrest characterized by massive accumulation of cells in the G2/M phase of cell cycle.
Cancer cells (A431, human epidermoid cells) were maintained in culture in D-MEM media with 10% FBS and 1 mg/ml glutamate. Prior to experiment, cells are plated onto 6-well plates for a final density of 500,000 cells/well at the time of treatment. Cells were treated with compounds at 0.01-1 μM final concentrations (final […] DMS 0) for 24 hours, then trypsinized, collected, rinsed in PBS (phosphate buffered saline), and fixed in 70% cold ethanol overnight at 4° C. Cells were then rinsed with PBS, resuspended in PBS with 0.2% Tween, RNAse was added (final 1 μg/ml), cells were incubated at 37° C. for 15 min, followed by addition of Propidium Iodide (final 50 μg/ml), and a 30 minute incubation at room temperature. DNA ploidy was analyzed using cell sorters (Epics Excel, Beckman-Coulter, or Guava PCA-96, Guava Technologies) and mitotic arrest characterized by massive accumulation of cells in the G2/M phase of cell cycle.

bovine tubulin = test: In vitro tubulin polymerization assay (turbidity at 340 nm); type: biochemical; settings: 10 μM compound, 30 minute data point, vs 1% DMSO control
Procedure, shortened: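 Bovine tubulin (97%, <3% MAPs) at 3 mg/ml final in G-PEM pH 7 with 1 mM GTP and 5% glycerol, added cold to compound wells at 37° C (1% DMSO final). A340 read each minute for 30 min; percent inhibition from 30-min point versus DMSO control.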

SMILES | minimal effective concentration ([1]; Homo sapiens, A-431, 24 h) | Tubulin Assay: percent inhibition at 10 μM based on 30 minute data (bovine tubulin) | minimal effective concentration ([1]; 24 hours)
FC(F)(F)c1ccc(-c2nnc(Nc3ccc4c(c3)OCO4)[nH]2)c(NCc2ccncc2)c1 [Compound 124, Benzo[1,3]dioxol-5-yl-(5-{2-[(pyridin-4-ylmethyl)-amino]-4-trifluoromethyl-phenyl}-4H-[1,2,4]triazol-3-yl)-amine] | 0.1 µM | 93% | 
O=S(=O)(Nc1ccccc1-c1nnc(Nc2ccc3c(c2)OCCO3)[nH]1)c1cccc(OC(F)(F)F)c1 [Compound 127, N-{2-[5-(2,3-Dihydro-benzo[1,4]dioxin-6-ylamino)-4H-[1,2,4]triazol-3-yl]-phenyl}-3-trifluoromethoxy-benzenesulfonamide] | 10 µM | 61% | 
CS(=O)(=O)c1ccc(-c2nnc(-c3ccccc3NCc3ccc4c(c3)OCO4)[nH]2)cc1 [Compound 133, Benzo[1,3]dioxol-5-ylmethyl-{2-[5-(4-methanesulfonyl-phenyl)-4H-[1,2,4]triazol-3-yl]-phenyl}-amine] | 1 µM | 86% | 
COc1cccc(-c2nnc(-c3ccccc3NCc3ccc4[nH]ncc4c3)[nH]2)c1 [Compound 136, (1H-Indazol-5-ylmethyl)-{2-[5-(3-methoxy-phenyl)-4H-[1,2,4]triazol-3-yl]-phenyl}-amine] | 10 µM | 32% | 
FC(F)(F)Oc1cccc(-c2nnc(-c3ccccc3NCc3ccc4c(c3)OCO4)[nH]2)c1 [Compound 141, Benzo[1,3]dioxol-5-ylmethyl-{2-[5-(3-trifluoromethoxy-phenyl)-4H-[1,2,4]triazol-3-yl]-phenyl}-amine] | 0.1 µM | 88% | 
Brc1ccc(-c2nnc(-c3ccccc3NCc3ccc4[nH]ncc4c3)[nH]2)cc1 [Compound 145, {2-[5-(4-Bromo-phenyl)-4H-[1,2,4]triazol-3-yl]-phenyl}-(1H-indazol-5-ylmethyl)-amine] | 0.1 µM | 58% | 
COc1cccc(-c2nnc(-c3ccccc3NCc3ccc4c(c3)OCO4)[nH]2)c1 [Compound 148, Benzo[1,3]dioxol-5-ylmethyl-{2-[5-(3-methoxy-phenyl)-4H-[1,2,4]triazol-3-yl]-phenyl}-amine] | 10 µM | 71% | 
Fc1ccc(CNc2ncccc2-c2nnc(Nc3ccc4c(c3)OCO4)o2)cc1F [Compound 155, {3-[5-(Benzo[1,3]dioxol-5-ylamino)-[1,3,4]oxadiazol-2-yl]-pyridin-2-yl}-(3,4-difluoro-benzyl)-amine] | 1 µM | 91% | 
COc1cccc(CNc2ncccc2-c2nnc(Nc3ccc4c(c3)OCO4)o2)c1 [Compound 156, {3-[5-(Benzo[1,3]dioxol-5-ylamino)-[1,3,4]oxadiazol-2-yl]-pyridin-2-yl}-(3-methoxy-benzyl)-amine] | 1 µM | 64% | 
COc1ccc(CNc2ncccc2-c2nnc(Nc3ccc4c(c3)OCO4)o2)cc1 [Compound 157, {3-[5-(Benzo[1,3]dioxol-5-ylamino)-[1,3,4]oxadiazol-2-yl]-pyridin-2-yl}-(4-methoxy-benzyl)-amine] | 1 µM | 92% | 
COc1cccc(CNc2ncccc2-c2nnc(Nc3ccc4c(c3)OCCO4)o2)c1 [Compound 159, {3-[5-(2,3-Dihydro-benzo[1,4]dioxin-6-ylamino)-[1,3,4]oxadiazol-2-yl]-pyridin-2-yl}-(3-methoxy-benzyl)-amine] | 0.075 µM | 87% | 
COc1ccc(CNc2ncccc2-c2nnc(Nc3ccc4c(c3)OCCO4)o2)cc1 [Compound 160, {3-[5-(2,3-Dihydro-benzo[1,4]dioxin-6-ylamino)-[1,3,4]oxadiazol-2-yl]-pyridin-2-yl}-(4-methoxy-benzyl)-amine] | 0.1 µM | 89% | 
Fc1ccc(CNc2ncccc2-c2nnc(Nc3ccc4c(c3)OCCO4)o2)cc1F [Compound 161, (3,4-Difluoro-benzyl)-{3-[5-(2,3-dihydro-benzo[1,4]dioxin-6-ylamino)-[1,3,4]oxadiazol-2-yl]-pyridin-2-yl}-amine] | 0.1 µM | 82% | 
c1cncc(CNc2ncccc2-c2nnc(Nc3ccc4c(c3)OCCO4)o2)c1 [Compound 162, {3-[5-(2,3-Dihydro-benzo[1,4]dioxin-6-ylamino)-[1,3,4]oxadiazol-2-yl]-pyridin-2-yl}-pyridin-3-ylmethyl-amine] | 0.01 µM | 86% | 
c1coc(CNc2ncccc2-c2nnc(Nc3ccc4c(c3)OCO4)o2)c1 [Compound 163, {3-[5-(Benzo[1,3]dioxol-5-ylamino)-[1,3,4]oxadiazol-2-yl]-pyridin-2-yl}-furan-2-ylmethyl-amine] | 1 µM | 90% | 
c1coc(CNc2ncccc2-c2nnc(Nc3ccc4c(c3)OCCO4)o2)c1 [Compound 164, {3-[5-(2,3-Dihydro-benzo[1,4]dioxin-6-ylamino)-[1,3,4]oxadiazol-2-yl]-pyridin-2-yl}-furan-2-ylmethyl-amine] |  | 73% | 0.1 µM
COc1ccc(CNc2ncccc2-c2nnc(Nc3ccc4c(c3)OCCO4)o2)cc1OC [Compound 165, {3-[5-(2,3-Dihydro-benzo[1,4]dioxin-6-ylamino)-[1,3,4]oxadiazol-2-yl]-pyridin-2-yl}-(3,4-dimethoxy-benzyl)-amine] | 0.1 µM | 86% | 
COc1ccc(CNc2ncccc2-c2nnc(Nc3ccc(OC)c(OC)c3)o2)cc1OC [Compound 166, (3,4-Dimethoxy-benzyl)-{3-[5-(3,4-dimethoxy-phenylamino)-[1,3,4]oxadiazol-2-yl]-pyridin-2-yl}-amine] | 1 µM | 53% | 
Fc1cccc(CNc2ncccc2-c2nnc(Nc3ccc4c(c3)OCCO4)o2)c1 [Compound 168, {3-[5-(2,3-Dihydro-benzo[1,4]dioxin-6-ylamino)-[1,3,4]oxadiazol-2-yl]-pyridin-2-yl}-(3-fluoro-benzyl)-amine] | 0.1 µM | 95% | 
Fc1ccc(CNc2ncccc2-c2nnc(Nc3ccc4c(c3)OCCO4)o2)cc1 [Compound 169, {3-[5-(2,3-Dihydro-benzo[1,4]dioxin-6-ylamino)-[1,3,4]oxadiazol-2-yl]-pyridin-2-yl}-(4-fluoro-benzyl)-amine] | 0.1 µM | 82% | 
c1cnc(N2CCOCC2)c(-c2nnc(Nc3ccc4c(c3)OCCO4)o2)c1 [Compound 170, (2,3-Dihydro-benzo[1,4]dioxin-6-yl)-[5-(2-morpholin-4-yl-pyridin-3-yl)-[1,3,4]oxadiazol-2-yl]-amine] | 0.1 µM | 55% | 
Fc1ccc(CNc2ncccc2-c2nnc(Nc3ccc4c(c3)OCO4)o2)cc1 [Compound 172, {3-[5-(Benzo[1,3]dioxol-5-ylamino)-[1,3,4]oxadiazol-2-yl]-pyridin-2-yl}-(4-fluoro-benzyl)-amine] | 0.1 µM | 95% and 87% | 
c1cnc(NCC2CCCO2)c(-c2nnc(Nc3ccc4c(c3)OCCO4)o2)c1 (stereo not drawn) [Compound 175, {3-[5-(2,3-Dihydro-benzo[1,4]dioxin-6-ylamino)-[1,3,4]oxadiazol-2-yl]-pyridin-2-yl}-(tetrahydro-furan-2-ylmethyl)-amine] | 0.1 µM | 90% | 
c1cnc(NCc2ccc3c(c2)OCO3)c(-c2nnc(Nc3ccc4c(c3)OCCO4)o2)c1 [Compound 195, Benzo[1,3]dioxol-5-ylmethyl-{3-[5-(2,3-dihydro-benzo[1,4]dioxin-6-ylamino)-[1,3,4]oxadiazol-2-yl]-pyridin-2-yl}-amine] | 0.01 µM | 73% | 
